The values that follow come from patent publication US9981916B2 (Genentech, Inc., priority 2013, dated 2018).

Molecules are shown by their SMILES.

The target in this assay is T1, RORc ligand binding domain (Homo sapiens, UniProt P51449).
T1 construct: host or cells: E. coli
T1 sequence (P51449 269-508 limits assumed): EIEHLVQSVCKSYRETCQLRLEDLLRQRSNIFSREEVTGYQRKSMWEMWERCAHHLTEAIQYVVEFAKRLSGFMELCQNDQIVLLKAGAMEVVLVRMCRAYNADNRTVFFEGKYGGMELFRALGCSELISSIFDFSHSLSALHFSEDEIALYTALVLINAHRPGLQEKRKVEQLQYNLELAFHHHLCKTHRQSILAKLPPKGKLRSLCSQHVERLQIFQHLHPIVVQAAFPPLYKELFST
Nature of the assay: In vitro RORc ligand binding assay (25-[3H]hydroxycholesterol displacement, filter binding). As to conditions: 6 nM 25-[3H]hydroxycholesterol, 0.6 ug/mL RORc receptor, 3 h at 25° C. A digest of the protocol:
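Compounds in 5% DMSO, either dose-response or screened at 1 and 10 uM, competed with 6 nM 25-[3H]hydroxycholesterol for 0.6 ug/mL RORc over 3 h at 25° C (HEPES pH 7.4, NaCl, MgCl2, DTT, BSA buffer). Bound tracer was filter-harvested and counted; nonspecific binding came from 1 uM 25-hydroxycholesterol.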
By IC50 is commonly meant the midpoint of a concentration-inhibition curve. Low values mean greater potency in that assay, high ones weaker potency in that assay. Compound `Cc1ocnc1[C@@]12CC[C@@H](c3cc(-c4c(F)cccc4F)nnc31)C2(C)C` [Example 193, 4-((5R,8S)-3-(2,6-difluorophenyl)-9,9-dimethyl-5,6,7,8-tetrahydro-5,8-methanocinnolin-8-yl)-5-methyloxazole] displayed a concentration for half-maximal inhibition (IC50) of 0.068 µM. The result for `CC1(C)[C@H]2CC[C@]1(c1ccno1)c1nnc(-c3c(F)cccc3F)cc12` [Example 194, 5-((5R,8R)-3-(2,6-difluorophenyl)-9,9-dimethyl-5,6,7,8-tetrahydro-5,8-methanocinnolin-8-yl)isoxazole] reads 0.05 µM.

Take `COc1cnc([C@@]23CC[C@@H](c4cc(-c5c(F)cccc5F)nnc42)C3(C)C)o1` [Example 195, 2-((5R,8R)-3-(2,6-difluorophenyl)-9,9-dimethyl-5,6,7,8-tetrahydro-5,8-methanocinnolin-8-yl)-5-methoxyoxazole]: the IC50 was determined as 0.04 µM. The result for `CN(C)Cc1nnc([C@@]23CC[C@@H](c4cc(-c5c(F)cccc5F)nnc42)C3(C)C)o1` [Example 196, 1-(5-((5R,8R)-3-(2,6-difluorophenyl)-9,9-dimethyl-5,6,7,8-tetrahydro-5,8-methanocinnolin-8-yl)-1,3,4-oxadiazol-2-yl)-N,N-dimethylmethanamine] reads 1.89 µM; that for `CC1(C)[C@H]2CC[C@]1(c1ccon1)c1nnc(-c3c(F)cccc3F)cc12` [Example 197, 3-((5R,8R)-3-(2,6-difluorophenyl)-9,9-dimethyl-5,6,7,8-tetrahydro-5,8-methanocinnolin-8-yl)isoxazole], 0.044 µM.

In turn, `CC1(C)[C@H]2CC[C@]1(C(=O)N1CC(OCc3ccccc3)C1)c1nnc(-c3c(F)cccc3F)cc12` [Example 198, (3-(benzyloxy)azetidin-1-yl)((5R,8R)-3-(2,6-difluorophenyl)-9,9-dimethyl-5,6,7,8-tetrahydro-5,8-methanocinnolin-8-yl)methanone] returned an IC50 of 3.25 µM. As for `CC1(C)[C@H]2CC[C@]1(C(=O)N1CC(O)C1)c1nnc(-c3c(F)cccc3F)cc12` [Example 199, ((5R,8R)-3-(2,6-difluorophenyl)-9,9-dimethyl-5,6,7,8-tetrahydro-5,8-methanocinnolin-8-yl)(3-hydroxyazetidin-1-yl)methanone], the half-inhibitory concentration (IC50) is 0.461 µM. Take `CC1(C)[C@@H]2CC[C@@]1(I)c1nnc(-c3ccccc3F)cc12` [Example 200, (5R,8S)-3-(2-fluorophenyl)-8-iodo-9,9-dimethyl-5,6,7,8-tetrahydro-5,8-methanocinnoline]: the IC50 worked out at 0.338 µM. `CC1(C)[C@@H]2CC[C@@]1(C(=O)NC1CCC1)c1nnc(-c3c(F)cccc3F)cc12` [Example 201, (5S,8S)-N-cyclobutyl-3-(2,6-difluorophenyl)-9,9-dimethyl-5,6,7,8-tetrahydro-5,8-methanocinnoline-8-carboxamide] showed an IC50 of 0.759 µM. In turn, `CC1(C)[C@@H]2CC[C@@]1(C(=O)NCC1CC1)c1nnc(-c3c(F)cccc3F)cc12` [Example 202, (5S,8S)-N-(cyclopropylmethyl)-3-(2,6-difluorophenyl)-9,9-dimethyl-5,6,7,8-tetrahydro-5,8-methanocinnoline-8-carboxamide] gave a half-inhibitory concentration (IC50) of 0.193 µM. For the compound `CC(=O)N(C)C1CCN(C(=O)[C@]23CC[C@H](c4cc(-c5c(F)cccc5F)nnc42)C3(C)C)C1` (stereo partly drawn) [Example 203, N-(1-((5S,8S)-3-(2,6-difluorophenyl)-9,9-dimethyl-5,6,7,8-tetrahydro-5,8-methanocinnoline-8-carbonyl)pyrrolidin-3-yl)-N-methylacetamide], the IC50 came out at 1.22 µM. As for `CC1(C)[C@@H]2CC[C@@]1(C(=O)N1CCC[C@@H]1CO)c1nnc(-c3c(F)cccc3F)cc12` [Example 204, ((5S,8S)-3-(2,6-difluorophenyl)-9,9-dimethyl-5,6,7,8-tetrahydro-5,8-methanocinnolin-8-yl) ((R)-2-(hydroxymethyl)pyrrolidin-1-yl)methanone], the half-maximal inhibitory concentration (IC50) stood at 0.6 µM.
